Data as given in PubChem BioAssay (NCI).
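Dose response: 5 concentrations. Exposure: 48 h. Format: 96-well plates. Endpoint: linear interpolation; highest concentration if not reached. Abbreviation: GI50, concentration required for 50% inhibition of growth. The concentration for full growth arrest is given as TGI.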

What was measured:
Assay in all cases: DTP human tumour cell line panel, 48 h
SN12C renal = tested on: SN12C renal
UO-31 renal = tested on: UO-31 renal
OVCAR-3 ovarian = tested on: OVCAR-3 ovarian
UACC-62 melanoma = tested on: UACC-62 melanoma
A549 NSCLC = tested on: A549 NSCLC
NCI-H522 lung = tested on: NCI-H522 lung
MALME-3M melanoma = tested on: MALME-3M melanoma
HL-60(TB) leukemia = tested on: HL-60(TB) leukemia
IGROV1 ovarian = tested on: IGROV1 ovarian
DU-145 prostate = tested on: DU-145 prostate

Structure (SMILES)	TGI (SN12C renal) [µM]	TGI (UO-31 renal) [µM]	TGI (OVCAR-3 ovarian) [µM]	TGI (UACC-62 melanoma) [µM]	TGI (A549 NSCLC) [µM]	TGI (NCI-H522 lung) [µM]	TGI (MALME-3M melanoma) [µM]	TGI (HL-60(TB) leukemia) [µM]	TGI (IGROV1 ovarian) [µM]	GI50 (SN12C renal) [µM]	GI50 (UO-31 renal) [nM]	GI50 (OVCAR-3 ovarian) [nM]	GI50 (UACC-62 melanoma) [nM]	GI50 (A549 NSCLC) [µM]	GI50 (NCI-H522 lung) [µM]	GI50 (MALME-3M melanoma) [µM]	GI50 (HL-60(TB) leukemia) [µM]	GI50 (IGROV1 ovarian) [µM]	GI50 (DU-145 prostate) [nM]	TGI (DU-145 prostate) [nM]
N#CC1CC2(C(=O)C1=O)c1ccccc1-c1ccccc12 (stereo not drawn)	> 100	> 100	> 100	> 100	> 100	> 100	> 100	> 100	> 100											
c1ccc(COC2(OCc3ccccc3)CC3OC2C2NN=NC32)cc1 (stereo not drawn)	> 10	99.2	33.8	46.6	> 100		52.6	33.7	76.3											
COc1cc2c(c(OC)c1OC)-c1ccc(OC)c(=O)cc1[C@@H](N(C)C=O)CC2	> 100	> 100	0.047	> 100	> 100	0.0438	> 100	0.0329	> 100											
CC(=O)/C=C/c1ccc(C)cc1	> 100	> 100	> 100	> 100	> 100	> 100	> 100	> 100	> 100											
COc1cc(/C=C2\C(=O)Nc3cccc(Cl)c32)cc(OC)c1OC	> 100	> 100	> 100	> 100	> 100	> 100	> 100	> 100	> 100	> 100	> 100000	> 100000	> 100000	> 100	> 100	> 100	11	> 100		
C1=Nc2ccccc2C=Nc2ccccc2C=Nc2ccccc2C=Nc2ccccc21.[Cl-].[Pt+2]	> 100	45.5		87.8	> 100	34.8		22.4	49.5	28.4	20800		21100	28.7	15.8		3.95	18.8		
COc1cc2c(cc1OCCCCOc1ccc(-c3nc4ccccc4s3)cc1)N=C[C@@H]1CCCN1C2=O	4	2.43	3.47	2.69	8.15	1.93		16.5	6.08	1.13	581	477	1140	2.8	0.565		0.384	1.28	426	2050
O=C(/C=C/c1ccccc1Cl)c1ccc(Cl)cc1Cl	32.2	36.9	31.6	27.6	39.8		33.5	46.3	27.6											
Cc1cc2cn3c4cccnc4[nH]c(=O)c3c2cc1C		2.97	3.22	2.78				4.16			1500	1770	1380				2.08		1830	3280
